From PubChem BioAssay AID179 (DTP/NCI, 2004) come the findings set out here.

The test system of the test is CEM cells HIV-1 protection, formazan growth assay. The experiment in a line: NCI AIDS Antiviral Assay. The conditions noted are these: for IC50: measured here: growth of uninfected CEM cells. The method, boiled down:
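Protection of CEM cells against HIV-1 was scored from cell growth (soluble formazan) across five concentrations, with parallel uninfected cells. Lack of protection may reflect toxicity.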

The term EC50 denotes the concentration at which the effect is half-maximal. One may read the IC50 as the concentration at which inhibition is half-maximal. Low readings indicate greater potency in that assay, high ones weaker potency in that assay.

In the case of `Cc1cc(Cl)c2c(c1)C(=N/O)/C(=C\c1ccco1)O2`, the EC50 is greater than 200 µM and the IC50 was found to be 10.2 µM.

Consider `CC(C)C(NC(=O)Oc1ccccc1)C(=O)NC1c2c(Br)sc(Br)c2C(=O)C1O` (centres undefined), for which the EC50 was greater than 200 µM and the IC50 is 11.7 µM.
